Data as given in paper PMC10786919, “Design-rules for stapled peptides with in vivo activity and their application to Mdm2/X antagonists” (Nature Communications, 2024).
Values after ≈ are worked out from the molar mass of the structure shown. Like-named read-outs stand apart in the source and are kept apart here. Positions of bridges follow the written chain, without caps; N, C: chain ends. Non-standard residues stand in square brackets, D forms with d. Residues, ends and D or L forms follow the SMILES beside them. Phe(3-CF3) = N[C@@H](Cc1cccc(C(F)(F)F)c1)C(=O)O; Lys(N3) = [N-]=[N+]=NCCCC[C@H](N)C(=O)O; R8 = C=CCCCCCC[C@@](C)(N)C(=O)O; Cba = N[C@@H](CC1CCC1)C(=O)O; S5 = C=CCCC[C@](C)(N)C(=O)O; Aib = CC(C)(N)C(=O)O; βAla = NCCC(=O)O

Experiments:
in vitro = assay: in vitro
Outline: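 Azido-peptide permeability was read as loss of NanoBRET signal (donor 450 nm, acceptor 610 nm) after adding NanoBret618-azide at 10 μM final.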

[1] = Experimental LogD (partition coefficient); conditions: for logD: not stated, Partition Coeff LogD
[2] = Solubility assay (kinetic solubility, PBS pH 7); assay type: physicochemical; conditions: pH 7, PBS; for solubility kinetic: pH 7, aqueous buffer, kinetic from dmso stock, read-out: Solubility
Outline: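 Reference standards were made by diluting the 10 mM stock to 100 µM in acetonitrile:methanol:DMSO 10:80:10. Solubility in µM was calculated as the sample peak area divided by the standard peak area, multiplied by the standard concentration.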

HCT116 cells = assay: Lactate dehydrogenase (LDH) release assay; assay type: cell-based
Outline: (§1)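 LDH release, fluorometric membrane-integrity read-out; HCT116 with stable p53-responsive β-lactamase reporter; 8000 cells/well; 0.5% DMSO final; geometric mean, n≥3 biological replicates.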

[3] = Lactate dehydrogenase (LDH) release assay; assay type: cell-based
Outline: as §1

[4] = Nanoclick permeability assay EC50

| SMILES | cell entry EC50 (in vitro; [4]) | logD [1] | EPSA (physchem) | solubility kinetic [2] | LDH: Cytotoxicity assay: % Effect (HCT116 cells) | EC50 ([3]; LDH: Cytotoxicity assay: EC50) | Partition Coeff LogD [1] | Solubility [2] | cell entry EC50 (in vitro) | LDH: Cytotoxicity assay: % Effect (HCT116 cells; 0% FBS 4Hr) | LDH: Cytotoxicity assay: % Effect (HCT116 cells; 10% FBS 4Hr) | EC50 ([3]; 0% FBS 4Hr, read-out: LDH: Cytotoxicity assay: EC50) | EC50 ([3]; 10% FBS 4Hr, read-out: LDH: Cytotoxicity assay: EC50) |
| --- | --- | --- | --- | --- | --- | --- | --- | --- | --- | --- | --- | --- | --- |
| CC(=O)N[C@@H](CCCCN=[N+]=[N-])C(=O)NCCC(=O)N[C@@H](CC(C)C)C(=O)N[C@H](C(=O)N[C@@H](Cc1ccccc1)C(=O)N[C@]1(C)CCCCCCC=CCCC[C@@](C)(C(=O)N[C@@H](CO)C(=O)N[C@@H](C)C(=O)N[C@@H](C)C(N)=O)NC(=O)[C@H](CC2CCC2)NC(=O)[C@H](CCC(N)=O)NC(=O)[C@H](C)NC(=O)[C@H](Cc2c[nH]c3ccccc23)NC(=O)[C@H](Cc2ccccc2)NC(=O)[C@H](CCC(=O)O)NC1=O)[C@@H](C)O [MP-028] (Ac-[Lys(N3)][βAla]LTF[R8]EFWAQ[Cba][S5]SAA-NH2; staple 6-13) | 46.4 nM | 3.2 | 197 A^2 | 6 µM (≈ 11.7 µg/mL) | 33.41% | 8430 nM |  |  |  |  |  |  |  |
| CC(=O)N[C@@H](CCCCN=[N+]=[N-])C(=O)NCCC(=O)N[C@@H](CC(C)C)C(=O)N[C@H](C(=O)N[C@@H](Cc1ccccc1)C(=O)N[C@]1(C)CCCCCCC=CCCC[C@@](C)(C(=O)N[C@@H](CO)C(=O)N[C@@H](C)C(=O)N[C@@H](C)C(N)=O)NC(=O)[C@H](CC2CCC2)NC(=O)[C@H](CCC(N)=O)NC(=O)[C@H](C)NC(=O)[C@H](Cc2cccc(C(F)(F)F)c2)NC(=O)[C@H](Cc2ccc(O)cc2)NC(=O)[C@H](CCC(=O)O)NC1=O)[C@@H](C)O [MP-030] (Ac-[Lys(N3)][βAla]LTF[R8]EY[Phe(3-CF3)]AQ[Cba][S5]SAA-NH2; staple 6-13) | 408 nM |  | 192 A^2 |  | 8.06% | > 50600 nM | Poorly Behaved | Poorly Behaved |  |  |  |  |  |
| CC(=O)N[C@@H](CCCCN=[N+]=[N-])C(=O)NCCC(=O)N[C@@H](CC(C)C)C(=O)N[C@H](C(=O)N[C@@H](Cc1ccccc1)C(=O)N[C@]1(C)CCCCCCC=CCCC[C@@](C)(C(=O)N[C@@H](CO)C(=O)N[C@@H](C)C(=O)N[C@@H](C)C(N)=O)NC(=O)[C@H](CC2CCC2)NC(=O)[C@H](CCC(N)=O)NC(=O)[C@H](C)NC(=O)[C@H](Cc2c[nH]c3ccccc23)NC(=O)[C@@H](CCC(=O)O)NC(=O)[C@H](C)NC1=O)[C@@H](C)O [MP-036] (Ac-[Lys(N3)][βAla]LTF[R8]A[dE]WAQ[Cba][S5]SAA-NH2; staple 6-13) | 53 nM |  | 188 A^2 |  | 2.628% | > 50600 nM | Poorly Behaved | Poorly Behaved |  |  |  |  |  |
| CC(C)C[C@H](NC(=O)CCNC(=O)[C@@H](N)CCCCN=[N+]=[N-])C(=O)N[C@H](C(=O)N[C@@H](Cc1ccccc1)C(=O)N[C@]1(C)CCCCCCC=CCCC[C@@](C)(C(N)=O)NC(=O)[C@H](CC(C)C)NC(=O)[C@H](CC(C)C)NC(=O)[C@H](C)NC(=O)[C@H](Cc2c[nH]c3ccccc23)NC(=O)[C@H](Cc2ccc(O)cc2)NC(=O)[C@H](CCC(=O)O)NC1=O)[C@@H](C)O [MP-0176] (H-[Lys(N3)][βAla]LTF[R8]EYWALL[S5]-NH2; staple 6-13) | 217 nM | 2.85 | 212 A^2 |  | 6.97% | > 50600 nM |  | Poorly Behaved |  |  |  |  |  |
| CC(C)C[C@@H]1NC(=O)[C@H](C)NC(=O)[C@H](Cc2c[nH]c3ccccc23)NC(=O)[C@H](Cc2ccc(O)cc2)NC(=O)[C@H](CCC(=O)O)NC(=O)[C@](C)(NC(=O)[C@H](Cc2ccccc2)NC(=O)[C@H](CO)NC(=O)[C@@H](NC(=O)CCNC(=O)[C@@H](N)CCCCN=[N+]=[N-])[C@@H](C)O)CCCCCCC=CCCC[C@@](C)(C(N)=O)NC(=O)[C@H](CC(C)C)NC1=O [MP-0177] | 130 nM | 2.7 | 218 A^2 |  | -0.29% | > 50600 nM |  | Poorly Behaved |  |  |  |  |  |
| CC(C)C[C@@H]1NC(=O)[C@H](C)NC(=O)[C@H](Cc2c[nH]c3ccccc23)NC(=O)[C@H](Cc2ccc(O)cc2)NC(=O)[C@H](CCC(=O)O)NC(=O)[C@](C)(NC(=O)[C@H](Cc2ccccc2)NC(=O)[C@H](CO)NC(=O)[C@@H](NC(=O)[C@H](CO)NC(=O)[C@@H](N)CCCCN=[N+]=[N-])[C@@H](C)O)CCCCCCC=CCCC[C@@](C)(C(N)=O)NC(=O)[C@H](CC(C)C)NC1=O [MP-0178] | 1310 nM | 2.59 | 235 A^2 |  | 0.79% | > 50600 nM |  | Poorly Behaved |  |  |  |  |  |
| CC(C)C[C@@H]1NC(=O)[C@H](C)NC(=O)[C@H](Cc2c[nH]c3ccccc23)NC(=O)[C@H](Cc2ccc(O)cc2)NC(=O)[C@H](CCC(=O)O)NC(=O)[C@](C)(NC(=O)[C@H](Cc2ccccc2)NC(=O)[C@H](CO)NC(=O)[C@@H](NC(=O)[C@H](CO)NC(=O)CNC(=O)[C@@H](N)CCCCN=[N+]=[N-])[C@@H](C)O)CCCCCCC=CCCC[C@@](C)(C(N)=O)NC(=O)[C@H](CC(C)C)NC1=O [MP-0179] | 503 nM | 2.57 | 230 A^2 |  | 3.75% | > 50600 nM |  | Poorly Behaved |  |  |  |  |  |
| CC(=O)N[C@@H](CCCCN=[N+]=[N-])C(=O)NCCC(=O)N[C@@H](CC(C)C)C(=O)N[C@H](C(=O)N[C@@H](Cc1ccccc1)C(=O)N[C@]1(C)CCCCCCC=CCCC[C@@](C)(C(=O)N2CCC[C@H]2C(=O)N[C@@H](C)C(=O)N[C@@H](C)C(N)=O)NC(=O)[C@H](CC2CCC2)NC(=O)[C@H](CCC(N)=O)NC(=O)[C@H](C)NC(=O)[C@H](Cc2c[nH]c3ccccc23)NC(=O)[C@H](Cc2ccc(O)cc2)NC(=O)[C@H](CCC(=O)O)NC1=O)[C@@H](C)O [MP-184] (Ac-[Lys(N3)][βAla]LTF[R8]EYWAQ[Cba][S5]PAA-NH2; staple 6-13) | 360 nM |  | 201 A^2 |  | 10.48% | > 50600 nM | Poorly Behaved | Poorly Behaved |  |  |  |  |  |
| CC(=O)N[C@@H](CCCCN=[N+]=[N-])C(=O)NCCC(=O)N[C@@H](C)C(=O)N[C@H](C(=O)N[C@@H](Cc1ccccc1)C(=O)N[C@]1(C)CCCCCCC=CCCC[C@@](C)(C(=O)N[C@@H](CO)C(=O)N[C@@H](C)C(=O)N[C@@H](C)C(N)=O)NC(=O)[C@H](CC2CCC2)NC(=O)[C@H](C)NC(=O)[C@H](C)NC(=O)[C@H](Cc2c[nH]c3ccccc23)NC(=O)[C@H](Cc2ccc(O)cc2)NC(=O)[C@H](C)NC1=O)[C@@H](C)O [MP-209, AZIDE-ATSP-7041 (L1A, E5A, Q9A)] (Ac-[Lys(N3)][βAla]ATF[R8]AYWAA[Cba][S5]SAA-NH2; staple 6-13) |  | 3.32 | 197 A^2 | 2 µM (≈ 3.63 µg/mL) |  |  |  |  | 906 nM | -1.35% | 7.572% | > 50600 nM | > 50000 nM |
| CC(=O)N[C@@H](CCCCN=[N+]=[N-])C(=O)NCCC(=O)N[C@@H](CC(C)C)C(=O)N[C@H](C(=O)N[C@@H](Cc1ccccc1)C(=O)N[C@]1(C)CCCCCCC=CCCC[C@@](C)(C(=O)N[C@@H](CO)C(=O)NC(C)(C)C(=O)N[C@@H](C)C(N)=O)NC(=O)[C@H](CC2CCC2)NC(=O)[C@H](CCC(N)=O)NC(=O)[C@H](C)NC(=O)[C@H](Cc2c[nH]c3ccccc23)NC(=O)[C@H](Cc2ccc(O)cc2)NC(=O)[C@H](CCC(=O)O)NC1=O)[C@@H](C)O [MP-257] (Ac-[Lys(N3)][βAla]LTF[R8]EYWAQ[Cba][S5]S[Aib]A-NH2; staple 6-13) | 469 nM | 2.97 | 210 A^2 | 25 µM (≈ 49.6 µg/mL) | -4.69% | 4550 nM |  |  |  |  |  |  |  |
| CC(=O)N[C@@H](CCCCN=[N+]=[N-])C(=O)NCCC(=O)N[C@@H](CC(C)C)C(=O)N[C@H](C(=O)N[C@@H](Cc1ccccc1)C(=O)N[C@]1(C)CCCCCCC=CCCC[C@@](C)(C(=O)N[C@@H](CO)C(=O)N[C@@H](C)C(=O)N[C@@H](C)C(N)=O)NC(=O)[C@H](CC2CCC2)NC(=O)[C@H](CCC(N)=O)NC(=O)[C@H](C)NC(=O)[C@H](Cc2c[nH]c3ccccc23)NC(=O)[C@H](Cc2ccc(O)cc2)NC(=O)[C@H](CCC(=O)O)NC1=O)C(C)C [MP-258] (Ac-[Lys(N3)][βAla]LVF[R8]EYWAQ[Cba][S5]SAA-NH2; staple 6-13) | 146 nM | 2.93 | 213 A^2 | 79 µM (≈ 155 µg/mL) | -5.925% | > 50600 nM |  |  |  |  |  |  |  |
| CC(=O)N[C@@H](CCCCN=[N+]=[N-])C(=O)NCCC(=O)N1CCC[C@H]1C(=O)N[C@H](C(=O)N[C@@H](Cc1ccccc1)C(=O)N[C@]1(C)CCCCCCC=CCCC[C@@](C)(C(=O)N[C@@H](CO)C(=O)N[C@@H](C)C(=O)N[C@@H](C)C(N)=O)NC(=O)[C@H](CC2CCC2)NC(=O)[C@H](CCC(N)=O)NC(=O)[C@H](C)NC(=O)[C@H](Cc2c[nH]c3ccccc23)NC(=O)[C@H](Cc2ccc(O)cc2)NC(=O)[C@H](CCC(=O)O)NC1=O)[C@@H](C)O [MP-259] (Ac-[Lys(N3)][βAla]PTF[R8]EYWAQ[Cba][S5]SAA-NH2; staple 6-13) | 290 nM | 2.67 | 221 A^2 | 90.5 µM (≈ 177 µg/mL) | 7.47% | > 50600 nM |  |  |  |  |  |  |  |
